According to ChEMBL document CHEMBL1201862, “PubChem BioAssay data set” (2004):
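Briefly, cells in 96-well plates were exposed to five compound concentrations for 48 h, and endpoints were estimated by linear interpolation. Abbreviation: GI50, concentration required for 50% inhibition of growth.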 The source made the active and inactive calls. Rule as the data show it: active = GI50 up to about 1.1 µM and inactive = higher.

Legend:
Test in all cases: DTP human tumour cell line panel, 48 h
DU-145 = tested on: DU-145
786-0 = tested on: 786-0
COLO 205 = tested on: COLO 205
MDA-MB-231 = tested on: MDA-MB-231
SK-MEL-5 = tested on: SK-MEL-5
EKVX = tested on: EKVX
MDA-MB-435 = tested on: MDA-MB-435
NCI-H460 = tested on: NCI-H460
HCC 2998 = tested on: HCC 2998
SF-295 = tested on: SF-295
SNB-75 = tested on: SNB-75
HCT-116 = tested on: HCT-116
U-251 = tested on: U-251
TK-10 = tested on: TK-10
SK-MEL-2 = tested on: SK-MEL-2
Hs-578T = tested on: Hs-578T
SK-OV-3 = tested on: SK-OV-3
RPMI-8226 = tested on: RPMI-8226
HOP-92 = tested on: HOP-92
IGROV-1 = tested on: IGROV-1

Measured: GI50

CSCCC(NC(=O)OC(C)(C)C)C(=O)NCCNc1ccc(NCCNC(=O)C(CCSC)NC(=O)OC(C)(C)C)c2c1C(=O)c1ccccc1C2=O (stereo not given)
inactive: DU-145 4.79 µM | 786-0 5.82 µM | COLO 205 2.22 µM | MDA-MB-231 2.83 µM | SK-MEL-5 3.07 µM | EKVX 8.11 µM | MDA-MB-435 2.63 µM | NCI-H460 5.85 µM | HCC 2998 2.32 µM | SF-295 7.57 µM | SNB-75 2.37 µM | HCT-116 8.71 µM | U-251 2.88 µM | TK-10 3.38 µM | SK-MEL-2 14.2 µM | Hs-578T 2.39 µM | SK-OV-3 8.89 µM | RPMI-8226 3.01 µM | HOP-92 3.93 µM | IGROV-1 3.14 µM

COc1ccc(-n2cnc3c(NCC(=O)O)ncnc32)cc1
inactive: DU-145 > 100 µM | 786-0 > 100 µM | COLO 205 > 100 µM | MDA-MB-231 > 100 µM | SK-MEL-5 > 100 µM | EKVX > 100 µM | MDA-MB-435 > 100 µM | NCI-H460 > 100 µM | HCC 2998 > 100 µM | SF-295 > 100 µM | SNB-75 > 100 µM | HCT-116 > 100 µM | U-251 > 100 µM | TK-10 > 100 µM | SK-MEL-2 > 100 µM | Hs-578T > 100 µM | SK-OV-3 > 100 µM | RPMI-8226 > 100 µM | HOP-92 > 100 µM | IGROV-1 > 100 µM

COc1ccccc1C1Nn2c(nc3ccccc3c2=O)N1c1ccc(C)cc1 (stereo not given)
inactive: DU-145 11 µM | 786-0 2.67 µM | COLO 205 6.65 µM | MDA-MB-231 5.62 µM | SK-MEL-5 7.45 µM | EKVX 11.4 µM | MDA-MB-435 8.2 µM | NCI-H460 3.37 µM | HCC 2998 3.8 µM | SF-295 4.94 µM | SNB-75 14.9 µM | HCT-116 4.23 µM | U-251 2.04 µM | TK-10 6.41 µM | SK-MEL-2 11.4 µM | Hs-578T 10 µM | SK-OV-3 3.72 µM | RPMI-8226 3.72 µM | HOP-92 10.4 µM | IGROV-1 6.34 µM

CCOC(=O)Cc1csc(N/N=C2\C(=O)Nc3ccccc32)n1
inactive: DU-145 76.7 µM | 786-0 69.5 µM | COLO 205 28.6 µM | MDA-MB-231 43 µM | SK-MEL-5 21.7 µM | EKVX 32.1 µM | MDA-MB-435 55.6 µM | NCI-H460 33.4 µM | HCC 2998 59 µM | SF-295 38.7 µM | SNB-75 28.2 µM | HCT-116 40.1 µM | U-251 42.4 µM | TK-10 > 100 µM | SK-MEL-2 52.6 µM | Hs-578T 56.1 µM | SK-OV-3 49.4 µM | RPMI-8226 36.5 µM | HOP-92 42.2 µM | IGROV-1 17.4 µM

O=C(O)CO/N=C1/C(=C2/C(=O)Nc3ccccc32)Nc2ccccc21
inactive: DU-145 44.3 µM | 786-0 63.4 µM | COLO 205 57.5 µM | MDA-MB-231 62.8 µM | SK-MEL-5 24.1 µM | EKVX 24.9 µM | MDA-MB-435 37.9 µM | NCI-H460 72.8 µM | HCC 2998 33.1 µM | SF-295 89.9 µM | SNB-75 27 µM | HCT-116 39.6 µM | U-251 82.6 µM | TK-10 > 100 µM | SK-MEL-2 25.8 µM | Hs-578T 29.6 µM | SK-OV-3 22.4 µM | RPMI-8226 > 100 µM | HOP-92 37.9 µM | IGROV-1 22.9 µM
